Measured values taken from patent US4716238A, “Chromene derivatives useful as insecticides” (Alkaloida Vegyeszeti Gyar, priority 1983, dated 1987).
Where two headings read alike, the source gives them in different places.

Legend:
[1] = test system: insects; conditions: prior art; cited from earlier work
[2] = test system: cabbage butterfly; assay: Cabbage butterfly test (sprayed cabbage seedlings, II. stage larvae); type: in vivo; conditions: Pieris brassicae, 50 EC composition; for mortality at 0.01 % / survival at 0.01 %: concentration 0.01%; for mortality at 0.01 % / mortality at 0.1 %: read-out: Killing rate of larvae; for mortality at 0.1 % / survival at 0.1 %: concentration 0.1%
Procedure: cabbage butterfly (Pieris brassicae)
From the 50 EC of the test compound a dilution series is prepared with water and the host seedlings (cabbage) are sprayed with this composition until the spray runs down. The spray is allowed to dry whereupon 20 young larvae of the II. stage are placed on each treated plant and the seedlings are kept under so-called "long-day" illumination (18 hours of illumination and 6 hours of darkness). The nibbled plants are replaced by similarly sprayed plants if necessary. The killing rate of the insects, the growth rate of the larvae and the morphological deformations of the surviving nymphs and adults are registered.
In the 50 EC compositions P1 and test compound 1 are used in a concentration of 0.01%, and the other active ingredients in a concentration of 0.1%.

[3] = test system: domestic fly; assay: Domestic fly test (larvae on treated nutrient medium); type: in vivo; conditions: Musca domestica
Procedure: domestic fly (Musca domestica)
The fly larvae are grown on a nutrient medium of the following composition: 2 ml of milk; 2 ml of water; 2 g of wheat bran; 0.1 ml of saturated alcoholic nipagin solution.
The nutrient medium is filled into cylindrical glass vials (30×100 mm) and 25 fly larvae are raised in each vial. The test compound is dissolved in milk; the end concentration (related to milk) amounts to 0.1% which corresponds to 0.05% (related to the total nutrient medium). The solution of the active ingredient is admixed with the nutrient medium whereupon […] of domestic fly larvae of the I. stage are placed into each vial and the vials are closed with a hard cotton-wool stopper. The nymphs emerging from the larvae are collected in each vial, counted and kept in a petri dish (diameter 25 mm) until flies hatch from the nymphs. The hatched flies are counted.

[4] = test system: mustard beetle; assay: Mustard beetle test; type: in vivo; conditions: Phaedon cochleariae; concentration 1%; control 100%; read-out: Survival of adults
Procedure: Two weeks old mustard seedlings are sprayed with a solution of 0.1 g of the test compound, 0.5 ml of dimethyl sulfoxide, and 10 μl of 50 EC composition in 10 ml of water. After the spray is dried, 20 mustard larvae of the II. stage are placed on each plant. The sprayed plants are changed every second day. The evaluation is based on the number of imagos hatching from the nymphs.

[5] = test system: Caenorhabditis elegans adult nematodes; assay: Nematocidal effect on Caenorhabditis elegans adult nematodes; type: in vivo; conditions: for Size of descendant population: control normal; for mortality at 200 µg/mL / mortality at 400 µg/mL: Caenorhabditis elegans, read-out: Lethality
Procedure: Caenorhabditis elegans 0.5 ml of the acetonous solution of the test compound is applied onto a NGM agar plate free from bacteria in a Petri dish. After the acetone was dried 25-30 young adults are placed on the plate. After 24 hours the surviving and killed […] are counted.

[6] = test system: cotton bug; assay: Cotton bug test (topical application on larvae of II. stage); type: in vivo, Dysdercus fasciatus
Procedure: cotton bug (Dysdercus fasciatus) A dilution series is prepared from the test compound with acetone, and 0.2 μl of each dilution is topically applied onto the back part of larvae of the II. stage of growth with the aid of a Hamiltion syringe. The active ingredient is absorbed through the cuticula. The animals are kept in a large glass and fed with cotton grains and water. After adult shedding the surviving insects are observed for eventual adultoid symptoms, the egg-reproduction and the development of the ovules is evaluated too. (Remark: in the cotton bug test 50 insects are used). In each Table the control value are disclosed too.

SMILES: COc1cc2c(cc1OC(C)C)OC(C)(C)C=C2 [6-methoxy-7-isopropoxy-2,2-dimethyl-chromene]
- activity relative to natural P1 and P2 [1]: considerably more active than natural P1 and P2

SMILES: CCCOc1ccc2c(c1)OC(C)(C)C=C2 [Compound 1]
- mortality at 0.01 % [2]: 52%
- survival at 0.01 % ([2]; read-out: Survival, adult): 39%
- survival at 0.01 % ([2]; read-out: Survival, nymph): 48%

SMILES: CC(C)COc1ccc2c(c1)OC(C)(C)C=C2 [Compound 3]
- survival at 0.1 % ([3]; read-out: Survival, adult): 28.2%
- survival at 0.1 % ([3]; read-out: Survival, nymph): 100%

SMILES: CCOc1cc(C)c2c(c1)OC(C)(C)C=C2 [Compound 17]
- mortality at 0.1 % [2]: 81%
- survival at 0.1 % ([2]; read-out: Survival, adult): 19%
- survival at 0.1 % ([2]; read-out: Survival, nymph): 19%
- survival at 0.1 % ([3]; read-out: Survival, adult): 14.8%
- survival at 0.1 % ([3]; read-out: Survival, nymph): 40%

SMILES: Cc1cc(OC(C)C)cc2c1C=CC(C)(C)O2 [Compound 19]
- survival at 0.1 % ([3]; read-out: Survival, adult): 27.6%
- survival at 0.1 % ([3]; read-out: Survival, nymph): 50.9%

SMILES: CCC(C)Oc1cc(C)c2c(c1)OC(C)(C)C=C2 (centres unmarked) [Compound 20]
- mortality at 0.1 % [2]: 11%
- survival at 0.1 % ([2]; read-out: Survival, adult): 14%
- survival at 0.1 % ([2]; read-out: Survival, nymph): 19%
- survival at 0.1 % ([3]; read-out: Survival, adult): 12.5%
- survival at 0.1 % ([3]; read-out: Survival, nymph): 25.4%

SMILES: Cc1cc(OCC(C)C)cc2c1C=CC(C)(C)O2 [Compound 21]
- mortality at 0.1 % [2]: 100%
- survival at 1 % [4]: 27%
- survival at 0.1 % ([3]; read-out: Survival, adult): 25.5%
- survival at 0.1 % ([3]; read-out: Survival, nymph): 45.7%

SMILES: Cc1cc(OC2CCCC2)cc2c1C=CC(C)(C)O2 [Compound 22]
- mortality at 0.1 % [2]: 100%
- survival at 0.1 % ([3]; read-out: Survival, adult): 31.8%
- survival at 0.1 % ([3]; read-out: Survival, nymph): 52.7%

SMILES: C#CCOc1cc(C)c2c(c1)OC(C)(C)C=C2 [Compound 30]
- mortality at 0.1 % [2]: 83%
- survival at 0.1 % ([2]; read-out: Survival, adult): 17%
- survival at 0.1 % ([2]; read-out: Survival, nymph): 17%
- survival at 0.1 % ([3]; read-out: Survival, adult): 10.6%
- survival at 0.1 % ([3]; read-out: Survival, nymph): 50.9%
- Remark ([5]; 200 μg/ml): paralysis
- Size of descendant population ([5]; 200 μg/ml): some descendants
- Remark ([5]; 400 μg/ml): paralysis
- Size of descendant population ([5]; 400 μg/ml): no descendants
- mortality at 200 µg/mL ([5]; 24 h): 20%
- mortality at 400 µg/mL ([5]; 24 h): 30%

SMILES: C=CCOc1cc2c(cc1OCC=C)OC(C)(C)C=C2 [Compound 58]
- Size of descendant population ([5]; 200 μg/ml): some descendants
- Size of descendant population ([5]; 400 μg/ml): no descendants
- mortality at 200 µg/mL ([5]; 24 h): 40%
- mortality at 400 µg/mL ([5]; 24 h): 90%

SMILES: CC(C)=CCOc1cc2c(cc1OCC=C(C)C)OC(C)(C)C=C2 [Compound 60]
- LD50 [6]: 0.6 μg/insect

SMILES: CCC(C)Oc1cc2c(cc1OC)C=CC(C)(C)O2 (centres unmarked) [Compound 66]
- AJH effect [6]: 0.1 μg/insect
- LD50 [6]: 0.4 μg/insect

SMILES: COc1cc2c(cc1OCC(C)C)OC(C)(C)C=C2 [Compound 67]
- LD50 [6]: 0.4 μg/insect

SMILES: CCOc1ccc2c(c1OC)OC(C)(C)C=C2 [Compound 87]
- mortality at 0.1 % [2]: 76%
- survival at 0.1 % ([2]; read-out: Survival, adult): 24%
- survival at 0.1 % ([2]; read-out: Survival, nymph): 24%
- survival at 0.1 % ([3]; read-out: Survival, adult): 4.2%
- survival at 0.1 % ([3]; read-out: Survival, nymph): 5.4%
- Size of descendant population ([5]; 200 μg/ml): reduced
- Size of descendant population ([5]; 400 μg/ml): no descendants
- mortality at 200 µg/mL ([5]; 24 h): 40%
- mortality at 400 µg/mL ([5]; 24 h): 100%

SMILES: CCCOc1ccc2c(c1OC)OC(C)(C)C=C2 [Compound 88, 7-n-propoxy-8-methoxy-2,2-dimethyl-2H-chromene]
- mortality at 0.1 % [2]: 100%
- survival at 1 % [4]: 45%
- survival at 0.1 % ([3]; read-out: Survival, adult): 0%
- survival at 0.1 % ([3]; read-out: Survival, nymph): 12.7%

SMILES: CCC(C)Oc1ccc2c(c1OC)OC(C)(C)C=C2 (centres unmarked) [Compound 89, 7-sec.butoxy-8-methoxy-2,2-dimethyl-2H-chromene]
- mortality at 0.1 % [2]: 100%
- Size of descendant population ([5]; 200 μg/ml): reduced
- Size of descendant population ([5]; 400 μg/ml): reduced
- mortality at 200 µg/mL ([5]; 24 h): 25%
- mortality at 400 µg/mL ([5]; 24 h): 85%

SMILES: COc1c(OC(C)C)ccc2c1OC(C)(C)C=C2 [Compound 90, 7-isopropoxy-8-methoxy-2,2-dimethyl-2H-chromene]
- mortality at 0.1 % [2]: 64%
- survival at 0.1 % ([2]; read-out: Survival, adult): 32%
- survival at 0.1 % ([2]; read-out: Survival, nymph): 36%
- survival at 0.1 % ([3]; read-out: Survival, adult): 0%
- survival at 0.1 % ([3]; read-out: Survival, nymph): 12%
- Size of descendant population ([5]; 200 μg/ml): reduced
- Size of descendant population ([5]; 400 μg/ml): reduced
- mortality at 200 µg/mL ([5]; 24 h): 60%
- mortality at 400 µg/mL ([5]; 24 h): 73%

SMILES: COc1c(OCC(C)C)ccc2c1OC(C)(C)C=C2 [Compound 91, 7-isobutoxy-8-methoxy-2,2-dimethyl-2H-chromene]
- mortality at 0.1 % [2]: 93%
- survival at 0.1 % ([2]; read-out: Survival, adult): 7%
- survival at 0.1 % ([2]; read-out: Survival, nymph): 7%

SMILES: CCCOc1cc(OC)c2c(c1)OC(C)(C)C=C2 [Compound 107]
- mortality at 0.1 % [2]: 88%
- survival at 0.1 % ([2]; read-out: Survival, adult): 12%
- survival at 0.1 % ([2]; read-out: Survival, nymph): 12%
- survival at 0.1 % ([3]; read-out: Survival, adult): 6.4%
- survival at 0.1 % ([3]; read-out: Survival, nymph): 9.1%

SMILES: COc1cc(OC(C)C)cc2c1C=CC(C)(C)O2 [Compound 108]
- mortality at 0.1 % [2]: 87%
- survival at 0.1 % ([2]; read-out: Survival, adult): 9%
- survival at 0.1 % ([2]; read-out: Survival, nymph): 13%

SMILES: CCC(C)Oc1cc(OC)c2c(c1)OC(C)(C)C=C2 (centres unmarked) [Compound 109]
- mortality at 0.1 % [2]: 100%

SMILES: COc1cc(OCC(C)C)cc2c1C=CC(C)(C)O2 [Compound 110, 5-methoxy-7-isobutoxy-2,2-dimethyl-2H-chromene]
- mortality at 0.1 % [2]: 100%
- survival at 0.1 % ([3]; read-out: Survival, adult): 0%
- survival at 0.1 % ([3]; read-out: Survival, nymph): 0%

SMILES: COc1ccc2c(c1)OC(C)(C)C=C2 [Compound P1, reference compound]
- mortality at 0.01 % [2]: 41%
- survival at 0.01 % ([2]; read-out: Survival, adult): 50%
- survival at 0.01 % ([2]; read-out: Survival, nymph): 59%
- survival at 0.1 % ([3]; 0.1% related to milk (0.05% of total nutrient medium), control 100%, read-out: Survival, adult): 33.3%
- survival at 0.1 % ([3]; 0.1% related to milk (0.05% of total nutrient medium), control 100%, read-out: Survival, nymph): 100%
- Size of descendant population ([5]; 200 μg/ml): reduced
- Size of descendant population ([5]; 400 μg/ml): no descendants
- mortality at 200 µg/mL ([5]; 200 μg/ml, 24 hours): 44%
- mortality at 400 µg/mL ([5]; 400 μg/ml, 24 hours): 98%

SMILES: COc1cc2c(cc1OC)OC(C)(C)C=C2 [Compound P2, reference compound]
- AJH effect [6]: 1 μg/insect
- LD50 [6]: 0.6 μg/insect
- Sterilizing effect [6]: 10 μg/insect
- Size of descendant population ([5]; 200 μg/ml): no descendants
- Size of descendant population ([5]; 400 μg/ml): no descendants
- mortality at 200 µg/mL ([5]; 200 μg/ml, 24 hours): 100%
- mortality at 400 µg/mL ([5]; 400 μg/ml, 24 hours): 100%

SMILES: CCOc1cc2c(cc1OC)C=CC(C)(C)O2 [Compound P3, 6-methoxy-7-ethoxy-2,2-dimethyl-2H-chromene, reference compound]
- Size of descendant population ([5]; 200 μg/ml): some descendants
- Size of descendant population ([5]; 400 μg/ml): no descendants
- mortality at 200 µg/mL ([5]; 24 h): 70%
- mortality at 400 µg/mL ([5]; 24 h): 90%
- activity relative to natural P1 and P2 [1]: considerably more active than natural P1 and P2
